According to US12303621B2, “Use of self-assembled alkylsilane coatings for drug delivery applications” (priority 2017, dated 2025):

Assay: In vitro release of TC or Rh in simulated body fluid (SBF) from alkylsilane-coated Mg discs
Type: physicochemical
Settings: alkylsilane coated Mg disks incubated in SBF, room temperature, 21 day period, sampled every two days; FIG. 1; one way ANOVA highly significant
Description: Self-assembled hybrid […] (AS) films on Mg were prepared using a dip-coating technique. The precursor solution was prepared by mixing 0.25 ml (0.73 mM) of […]) (Alfa Aesar, Ward Hill, MA, USA), 0.43 ml (2.92 mM) of […]) (Alfa Aesar, Ward Hill, MA, USA), 2 ml (0.032 mM) of ethanol and 0.25 ml of 0.010 mM HCl (aq.). […] Both the solutions were kept in the dark to avoid contact with light The Mg discs passivated with NaOH were dip coated in the TC- or Rh-containing solution for 1 minute, and dried in air for 10 minutes at room temperature in the dark. The discs were subsequently dried in an incubator at 37° C. for 24 hours to remove any trace amounts of organic solvents. […] Every two days, 150 μl of SBF was taken from each tube and concentrations of Tc and Rh were determined spectroscopically. The concentrations of TC or Rh were determined by measuring absorbance at 280 nm for TC, and fluorescence at excitation/emission wavelengths of 525/555 nm for Rh using a Synergy H1 microplate reader (BioTek instruments, Winooski, VT, USA). Standard curves were created by measuring absorbance and fluorescence intensities of the series of TC and Rh samples of known concentrations. Absorbance and Fluorescence intensity of each sample was calculated as an average of three separate readings. […] Cumulative release of TC or Rh over 21 day period was determined.

**Q.** With rhodamine as the substance, how does the “concentration in SBF media (cumulative release)” value read?
**A.** The value was “incremental increase”.
